Laboratory results reported in patent US5326786A, “5,6,7,9-tetrahydro-1,2,3-trimethoxy-9-oxobenzo[alpha]heptalene derivative and pharmaceutical use” (Ohgen Research Laboratories Ltd., priority 1992, dated 1994).
≈ marks a conversion by molar mass, not a printed value. Where “and” joins values, the source holds several entries; their conditions need not be identical. Identical values can stand only once. Counter-ions that a name gives are not always drawn.

Assays:
cancer cells = conditions: known compounds, background; cited from earlier work
[1] = known compounds, background; cited from earlier work
[2] = tested on: adriamycin-resistant mouse leukemic cells p388/ADR; assay: In vitro cancer cell proliferation inhibiting test (1); format: cell-based; conditions: 48 h, read-out: IC50 (50% proliferation inhibitory concentration), RPMI 1640 with 10% fetal bovine serum, cultured for 2 days
Protocol: (§1) (1) 10^6 each of mouse leukemic cells p388/S and adriamycin-resistant mouse leukemic cells p388/ADR are suspended in RPMI 1640 media each containing 10% fetal bovine serum, respectively, and cultured for 2 days in the presence of a test compound (this was used after it was dissolved in dimethylsulfoxide to 1 mg/ml and the solution was diluted with a phosphate buffer).

[3] = tested on: p388/S mouse leukemic cells; assay: as above; format: cell-based; conditions: 48 h, read-out: IC50 (50% proliferation inhibitory concentration), RPMI 1640 with 10% fetal bovine serum, cultured for 2 days
Protocol: as §1

[4] = tested on: adriamycin-resistant mouse leukemic cells p388/ADR; assay: In vitro cancer cell proliferation inhibiting test (2), Trypan Blue living cell count; format: cell-based
Protocol: (§2) (2) Mouse leukemic cells p388/S and adriamycin-resistant mouse leukemic cells P388/ADR subculturally transplanted in the abdominal cavity of mice were taken out together with the asites therefrom, respectively, and after washing, suspended in RPMI 1640 media (each containing 10% fetal bovine serum and 10 μM 2-mercaptoethanol) to 2×10^5 cells/ml, respectively.
(§3) Test solutions (solutions of the compound of the later-described Example 3 in phosphate-buffered physiological saline) were added to portions of each of these cell suspensions, respectively; and the mixtures were separately put into a 24-well culture plate and subjected to culture for 2 days in a 5% carbon dioxide culturing vessel.

[5] = tested on: p388/S mouse leukemic cells; assay: as above; format: cell-based
Protocol: as §2, §3

Acute toxicity test = format: in vivo, mouse; conditions: mouse, in vivo, ip; intraperitoneal; CDF male mice; 10 days observation; Litchfield Wilcoxon method; printed interval 233 to 310 mg/kg
CDF male mice = assay: Acute toxicity test; format: in vivo, mouse; conditions: intraperitoneal

SMILES | carcinostatic action (cancer cells) | toxicity [1] | IC50 [2] [µg/mL] | IC50 [3] [µg/mL] | further results
COc1cc2c(c(OC)c1OC)-c1ccc(OC)c(=O)cc1[C@@H](NC(C)=O)CC2 [Colchicine, colchicine] | no sufficient carcinostatic action | strong toxicity |  |  | 
COc1cc2c(c(OC)c1OC)-c1ccc(OC)c(=O)cc1C(NC[C@H]1COC(C)(C)O1)CC2 (stereo partly drawn) [D-N-(O,O-isopropylideneglyceryl)deacetylcolchicine] |  |  | 0.038 (≈ 0.0806 µM) | 0.014 (≈ 0.0297 µM) | 
CNc1ccc2c(cc1=O)[C@@H](NC(C)=O)CCc1cc(OC)c(OC)c(OC)c1-2 [N-methylcolchiceinamide] | no sufficient carcinostatic action | strong toxicity |  |  | 
COc1cc2c(c(OC)c1OC)-c1ccc(OC)c(=O)cc1C(NCC1COC(C)(C)O1)CC2 (racemic) [DL-N-(O,O-isopropylideneglyceryl)deacetylcolchicine] |  |  | 0.13 (≈ 0.276 µM) | 0.013 (≈ 0.0276 µM) | 
CNc1ccc2c(cc1=O)C(NCC1COC(C)(C)O1)CCc1cc(OC)c(OC)c(OC)c1-2 (centres unmarked) [N'-(O,O-isopropylideneglyceryl)-N-methyldeacetylcolchiceinamide tartrate salt] |  |  |  |  | IC50 (50% proliferation inhibitory concentration), P388/ADR ([4]; 2 days, experiment carried out three times, one value per experiment, tartrate salt): 0.0164 µg/mL and 0.0192 µg/mL; IC50 ([4]; Mus musculus, 48 h, read-out: IC50 (50% proliferation inhibitory concentration), P388/ADR, 2 days, experiment carried out three times, one value per experiment): 0.018 µg/mL; IC50 ([5]; Mus musculus, P388/S, 48 h, read-out: IC50 (50% proliferation inhibitory concentration), p388/S, 2 days, experiment carried out three times, one value per experiment): 0.0135 µg/mL; IC50 (50% proliferation inhibitory concentration), p388/S ([5]; p388/S, 2 days, experiment carried out three times, one value per experiment, tartrate salt): 0.0128 µg/mL and 0.0149 µg/mL
COc1cc2c(c(OC)c1OC)-c1ccc(OC)c(=O)cc1C(NC[C@@H]1COC(C)(C)O1)CC2 (stereo partly drawn) [Example 3, L-N-(O,O-isopropylideneglycerol)deacetylcolchicine] |  |  | 0.14 (≈ 0.297 µM) | 0.018 (≈ 0.0382 µM) | LD50 at 240 h (Acute toxicity test): 269 mg/kg; body weight change (CDF male mice; 10 days observation): tended to decrease up to 2 to 4 days after administration, but thereafter increased gradually; acute toxicity symptoms (CDF male mice; high administration groups, on and after one day after administration): the lie of hair got worse on and after one day after administration, and cases where diarrhea or loss of hair arose were also observed
